{"source": "patent US20160017326A1", "about": "“MICRORNAS AS FUNCTIONAL MEDIATORS AND BIOMARKERS OF BONE METASTASIS” (THE TRUSTEES OF PRINCETON UNIVERSITY, priority 2013, published 2016)", "key": {"RAW264.7 cells": {"system": "RAW264.7 cells", "assay": "RANKL-induced osteoclast differentiation, TRAP staining", "assay_type": "cell-based, murine", "details": "all models tested", "text": "HeLa and RAW264.7 cells (American Type Culture Collection, ATCC) were maintained in Dulbecco's modified Eagle's medium (DMEM) supplemented with 10% fetal bovine serum (FBS), penicillin/streptomycin (GIBCO), and fungizone. MOCP-5 cells were maintained in αMEM with 10% FBS and antibiotics. MDA-MB-231 parental cells (ATCC) and all sublines (SCP2, SCP4, SCP6, SCP28, SCP46) were maintained in DMEM with 10% FBS and antibiotics. The murine 4T1 and 4T1.2 cells, and human TSU-Pr1, and TSU-PR1-B2 cells were similarly maintained in DMEM with 10% FBS and antibiotics. For osteoclast differentiation assays, cells were treated with indicated concentration of RANKL in DMEM plus 10% FBS, with media changes performed every 2 days. Primary osteoclasts were isolated from bone marrow cells flushed from the tibia of 6-week-old wild type Balb/c mice and filtered through a […] cell-strainer before overnight culture in aMEM with 10% FBS. The following day 1×10^6 non-adherent cells were plated in 6-well plates supplemented with 50 ng/mL M-CSF for 2 days, followed by 50 ng/mL RANKL for an additional 4-5 days, with media changes every 2 days. Human osteoclasts were obtained from Lonza (2T-110) and differentiated by treatment with 33 ng/ml M-CSF and 66 ng/ml RANKL. CM was collected from the indicated sub-confluent tumor cells grown in DMEM with […] for 24 hours. The CM was passed through a 0.2 μm filter before addition to 1×10^5 RAW264.7 or MOCP-5 cells in a 6-well plate. The media was replaced with fresh CM daily. Cells were TRAP stained on day 6 using a leukocyte acid phosphatase kit (Sigma) and TRAP^+-multineucliated cells were quantified as mature osteoclasts. […]"}, "[1]": {"system": "SCP28 breast cancer cells", "assay": "Experimental bone metastasis: intracardiac SCP28 cells in nude mice, BLI, X-ray, histology", "assay_type": "in vivo, mouse", "details": "for osteolytic bone lesions (X-ray): hindlimbs, pre-miRNA treated; for hind-limb tumor burden / metastatic progression by BLI: pre-miRNA 10 μg/mouse i.v. before and once per week after SCP28 inoculation; for osteolytic bone metastasis: summary statement; for TRAP+ osteoclast number: histology, tumor-bone interface", "text": "(§1) Hindlimb bones were excised from mice at the end point of each experiment, immediately following X-ray and BLI. Hind limb bones were fixed in 10% neutral-buffered formalin, washed and decalcified in a solution of 10% EDTA for 2 weeks. One limb from each mouse was stored in 70% ethanol for μCT analysis and Von Kossa staining, while the other limb was embedded in paraffin for hematoxylin and eosin (H&E), tartrate-resistant acid phosphatase (TRAP), or immunohistochemical staining. Non-decalcified sections were embedded in resin using the Osteo-bed Bone Embedding Kit (Sigma Aldrich, EM0200) before sectioning, followed by Von Kossa staining. Briefly, sections were rehydrated to H2O, followed by submersion in 1% silver nitrate and exposure to UV light for 5 minutes. Sections were then incubated in 2.5% Sodium Thiosulphate, followed by counterstaining with Nuclear Fast Red and dehydration through Xylene. Histomorphometric analysis was performed on H&E stained bone metastasis sections using the Zeiss Axiovert 200 microscope and the AxioVision software version 4.6.3 SP1. For quantitative analysis of lesion area, a 5× objective was used to focus on the tumor region of interest and images were acquired using an AxioCamICc3 camera set to an exposure of 50 ms. Lesions that were larger than the field of view were quantified by acquiring multiple images to encompass the entire lesion and combined in Adobe Photoshop CS5. Lesion area was quantified by outlining the region(s) of interest and quantifying lesion area. Osteoclast number was assessed as multinucleated TRAP^+ cells along the tumor-bone interface and reported as number/mm of interface as previously reported (Sethi et al., 2011). Immunohistochemical analysis was performed with heat-induced antigen retrieval and an osteocalcin antibody (ABcam, AB93876). A biotinylated secondary antibody was used with Vectastain ABC Kit (Vector Laboratories) and DAB detection kit (Zymed) to reveal the positively stained cells; nuclei were counterstained with hematoxylin\n(§2) Anesthetized mice were placed on singlewrapped films (X-OMAT AR, Eastman Kodak) and exposed to X-ray radiography at 35 kV for 15 s using a MX-20 Faxitron instrument. Films were developed using a Konica SRX-101A processor. Changes in bone remodeling and osteolytic lesions (radiolucent lesions) in the hindlimbs of mice were identified and quantified using the ImageJ software (National Institutes of Health)\nAll procedures involving mice and experimental protocols were approved by Institutional Animal Care and Use Committee (IACUC) of Princeton University. For bone metastasis studies, 1×10^5 tumor cells were injected into the left cardiac ventricle of anesthetized female athymic Ncr-nu/nu. MiRNA precursors (10 μg/mouse in 100 μl PBS, Applied Biosystems) and Zometa (100 μg/kg) were injected intravenously. Development of metastases was monitored by measuring photon flux of BLI signals in the hindlimbs of mice after retro-orbital injection of 75 mg/kg D-Luciferin and image acquisition using the Xenogen IVIS 200 Imaging System. Data were normalized to the signal on day 0. X-ray examination was performed as previously described (Kang et al., 2003).\nAfter further validating the ability of highly metastatic SCP28 to induce osteoclastogenesis in MOCP5 cells, SCP28 were used for analyzing the effect of miRNAs on bone metastasis development in mice. FIG. 7E illustrates representative images of MOCP-5 cells treated with MDA-MB-231 and SCP28 CMs. Scale bar represents 200 μm. FIGS. 7F and 7G illustrate quantification of osteoclast number and nuclei per osteoclast after MOCP-5 cells were treated with indicated CM as in FIG. 7C. Results were statistically significant with p<0.001 (***) as assessed by Student's t test. Nude mice were systemically treated with control or experimental pre-miRNAs immediately before, and once per week subsequently, after inoculation with SCP28 cells via intracardiac injection. […]"}, "Balb/c mice": {"system": "Balb/c mice", "assay": "Systemic pre-miRNA treatment of healthy mice: X-ray, microCT, histology", "assay_type": "in vivo, mouse", "details": "for osteoclast activity in vivo: intravenous injection; for number of osteoclasts relative to bone surface area (TRAP): 10 μg pre-miRNA i.v. weekly for four weeks", "text": "as §1, §2\nFemurs and tibias were scanned using the INVEON PET/CT (Siemens Healthcare) at the Preclinical Imaging Shared Resource of Cancer Institute of New Jersey. The X-Ray tube settings were 80 kV and 500 μA and images were acquired at the highest resolution without CCD binning, resulting in a voxel size of 9.44 μm. A 0.66° rotation step through a 195° angular range with 6500 msec exposure was used. The images were reconstructed with Beam Hardening Correction and Hounsfield calibration before being analyzed using the INVEON Research Workplace software (Siemens Healthcare). After processing with a 3D Gaussian filter to reduce noise ROI's were manually segmented that corresponded to the cortical and trabecular bone regions. Cortical regions of interest comprised of 470 μm thick regions (50 slices, 9.4 μm thickness for each slice) located 3 mm distal to the growth plate, while 300 μm thick trabecular sections began 0.27 mm distal to the growth plate.\nTo evaluate the capacity for these miRNAs to inhibit mouse osteoclast function in vivo, 10 μg of pre-miRNA were injected into the lateral tail-vein of Balb/c mice weekly for four weeks. […] FIG. 6A illustrates representative X-ray, μCT and histological images for TRAP, H&E, Von Kossa, or osteocalcin staining of bones from mice treated with miR-33a, miR-133a, miR-141, miR-190 and miR-219 compared to non-treated control. Regions of interest for trabecular and cortical bone scan and analysis are marked by dashed lines. Scale bar indicates 200 μm, n=6. […]"}}, "data": [{"substance": "miR-133a: miRNA, SEQ ID NO: 61; delivered as pre-miRNA precursor; targets Mitf and Mmp14 (UUUGGUCCCCUUCAACCAGCUA; delivered as pre-miRNA precursor, chemistry not given here; listed as Homo sapiens)", "values": [{"measurement": "osteoclast maturation and activity", "setting": "RAW264.7 cells", "result": "strongly inhibit"}, {"measurement": "osteolytic bone lesions (X-ray)", "setting": "[1]", "result": "significant bone degradation"}, {"measurement": "hind-limb tumor burden / metastatic progression by BLI", "setting": "[1]", "result": "no effect"}, {"measurement": "osteolytic bone metastasis", "setting": "[1]", "result": "no measurable effect"}, {"measurement": "osteoclast activity in vivo", "setting": "Balb/c mice", "result": "significantly reduced"}]}, {"substance": "miR-141: miRNA, SEQ ID NO: 69; delivered as pre-miRNA precursor; targets Mitf and Calcr (UAACACUGUCUGGUAACGAUGU; delivered as pre-miRNA precursor, chemistry not given here; listed as Homo sapiens)", "values": [{"measurement": "osteoclast maturation and activity", "setting": "RAW264.7 cells", "result": "strongly inhibit"}, {"measurement": "osteolytic bone lesions (X-ray)", "setting": "[1]", "result": "decreased bone lesions"}, {"measurement": "TRAP+ osteoclast number", "setting": "[1]", "result": "significant decrease"}, {"measurement": "hind-limb tumor burden / metastatic progression by BLI", "setting": "[1]", "result": "significant decrease in metastatic burden"}, {"measurement": "osteolytic bone metastasis", "setting": "[1]", "result": "capable of inhibiting"}, {"measurement": "number of osteoclasts relative to bone surface area (TRAP)", "setting": "Balb/c mice", "result": "significant decrease"}, {"measurement": "osteoclast activity in vivo", "setting": "Balb/c mice", "result": "significantly reduced"}]}, {"substance": "miR-190: miRNA, SEQ ID NO: 64; delivered as pre-miRNA precursor; targets Calcr (UGAUAUGUUUGAUAUAUUAGGU; delivered as pre-miRNA precursor, chemistry not given here; listed as Homo sapiens)", "values": [{"measurement": "osteoclast maturation and activity", "setting": "RAW264.7 cells", "result": "Partial inhibition"}, {"measurement": "osteolytic bone lesions (X-ray)", "setting": "[1]", "result": "significant bone degradation"}, {"measurement": "TRAP+ osteoclast number", "setting": "[1]", "result": "significant decrease"}, {"measurement": "hind-limb tumor burden / metastatic progression by BLI", "setting": "[1]", "result": "no effect"}, {"measurement": "osteolytic bone metastasis", "setting": "[1]", "result": "no measurable effect"}, {"measurement": "osteoclast activity in vivo", "setting": "Balb/c mice", "result": "significantly reduced"}]}, {"substance": "miR-219: miRNA, SEQ ID NO: 66; delivered as pre-miRNA precursor; targets Mitf and Traf6 (UGAUUGUCCAAACGCAAUUCU; delivered as pre-miRNA precursor, chemistry not given here; listed as Homo sapiens)", "values": [{"measurement": "osteoclast maturation and activity", "setting": "RAW264.7 cells", "result": "strongly inhibit"}, {"measurement": "osteolytic bone lesions (X-ray)", "setting": "[1]", "result": "decreased bone lesions"}, {"measurement": "TRAP+ osteoclast number", "setting": "[1]", "result": "significant decrease"}, {"measurement": "hind-limb tumor burden / metastatic progression by BLI", "setting": "[1]", "result": "significant decrease in metastatic burden"}, {"measurement": "osteolytic bone metastasis", "setting": "[1]", "result": "capable of inhibiting"}, {"measurement": "number of osteoclasts relative to bone surface area (TRAP)", "setting": "Balb/c mice", "result": "significant decrease"}, {"measurement": "osteoclast activity in vivo", "setting": "Balb/c mice", "result": "significantly reduced"}]}]}
